# Results taken from patent US20230392115A1, “METHODS FOR MAKING AND USING DIFFERENTIATED NEURAL CELLS” (Research Development Foundation, priority 2020, published 2023).
# B1: Noggin: Noggin protein, BMP inhibitor, provided by Miltenyi Biotec (ref 130-103-456) (protein, UniProt Q13253 28-232, looked up)
# Noggin: QHYLHIRPAPSDNLPLVDLIEHPDPIFDPKEKDLNETLLRSLLGGHYDPGFMATSPPEDRPGGGGGAAGGAEDLAELDQLLRQRPSGAMPSEIKGLEFSEGLAQGKKQRLSKKLRRKLQMWLWSQTFCPVLYAWNDLGSRFWPRYVKVGSCFSKRSCSVPEGMVCKPSKSVHLTVLRWRCQRRGGQRCGWIPIQYPIISECKCSC
# Key:
# [1] = system: HS420 cells; test: Neuronal maturation after passage (nestin-, βIII-tubulin+ cells); format: cell-based, human; details: cells previously exposed to ALKi 0.2 μM, passaged at day 8, maturation
# Experimental: FIG. 7: Neuronal maturation f HS420 cells (one month) exposed to ALKi versus dualSMAD inhibition.
# (§1) For neural differentiation, HS420 cells at 50% of confluency were passaged in new laminin 521-coated tissue culture plates at the density of 10000 cells/cm^2 in Stemflex medium supplemented with ROCK inhibitor (Y27632, abcam) at 10 μM. After 24 h, cells were submitted to a medium change, the Stemflex being replaced by the following neural induction medium: Neurobasal (Thermofisher) supplemented with penicillin/streptomycin 100 U/ml (Invitrogen), B-27 supplement (Thermofisher), L-glutamine 2 mM (Thermofisher). Cells were passaged at day 8 and subsequent confluency (every weeks), by the use of Accutase (Thermofisher) and replated on polyornithine/Matrigel (Sigma)-coated tissue culture flasks at the density of 50 000/cm^2. • 3. Immunocytochemistry
# At confluency (occurring in these conditions at day 8), cells were passaged at a very low density with Accutase and polyornithine/Matrigel-coated dished for neuronal maturation in appropriated medium. Neuronal cells (nestin− and βIII-tubulin+ cells with a neuritic morphology) were present in cells previously exposed to the four compounds, in contrast to control conditions from which cells reduced progressively their number, with only few neuronal cells in the plate (FIG. 7).
# [2] = ATP-based cytotoxicity assay (Cmax allowing 100% viability); details: human, human embryonic pluripotent stem cell line HS420; HS420 cells; ATP quantification assay; read-out: Cmax (in vitro concentration allowing 100% of survival)
# Description: Multiple combinations between Noggin, LDN193189 and SB431542 are commonly used and generally called “dualSMAD inhibition”. It represents to date the most widely used way to induce early neural specification of PSC in vitro. Described herein is the report of a differentiation approach that excludes “dual Smad inhibition,” and instead achieves differentiation through the use of 5 chemicals inhibiting ALK to induce neural specification of pluripotent stem cells in vitro: ML347, DMH1, DMH2, K02288 and A8301 (Table 1). Table 1 indicates their name, PubChem ID and toxicity on the human embryonic Pluripotent Stem Cell line (ePSC) HS420, by using an ATP-based cytotoxicity assay. The Cmax was defined as the maximal concentration in vitro allowing 100% of viability of cells.
# [3] = system: HS420 cells; test: Q-RT-PCR of regionalization markers (Otx-2, Lmxla, FoxA2, FoxG1, Msx-1) at day 8; format: cell-based, human; details: 0.2 uM, day 8, normalized to vehicle
# Experimental: FIG. 6: HS420 cells were exposed for 8 days to dual SMAD inhibition or ALK inhibitors at the concentration of 0.2 μM. Regionalization markers were measured by Q-RT-PCR and normalized with control conditions (no compounds, vehicle alone).
# (§2) Quantitative PCR was performed with Tecan Freedom Evo by using SYBR green fluorescence. cDNA was produced from RNA by using the prime script RT reagent kit (Takara). All primers were diluted at a concentration of 0.86 μM, and a master mix was used (Power SYBR Green Master Mix, Thermo Fisher Scientific).
# A possible impact of ALK inhibitors on early neural specification was analysed after 8 days of differentiation and compared with dual SMAD inhibition. Several markers of early specification, focusing on forebrain/midbrain regionalization were measured by Q-RT-PCR at day 8 in neural induction medium. The following markers were tested: Otx-2 which is an anterior marker (forebrain and midbrain), Lmxla which is expressed in dorsal and ventral midbrain, FoxA2 which is a ventral marker in forebrain, midbrain and hindbrain. Was also tested the forebrain FoxG1 and Msx-1 which is more specific for early dopaminergic differentiation. Several experiments were performed (n=3) and values were normalized as the percentage of control (=no compound, vehicle lone). At this early stage (day 8), FoxA2 and Msx-1 were not detected by PCR in all conditions, showing the absence of acquisition of a ventral and dopaminergic identity. […] The Hindbrain marker HoxA2 was not detected at this stage (not shown), showing the absence of a hindbrain identity (not shown). […] DMH1 and DMH2 reduce the forebrain identity, a useful prerequisite for dopaminergic specification.
# [4] = system: human embryonic stem cell line HS420; test: Immunofluorescent staining for nestin, Pax-6, Sox-1 at day 8; format: cell-based; details: 0.2 μM
# Experimental: Cells on glass coverslips were fixed with 1 mL of 0.5% paraformaldehyde in PBS for 30 minutes at room temperature. Cells were then washed three times with 1 mL of PBS and incubated overnight with primary antibodies in PBS containing 0.1% Triton X-100 (Sigma), and 1% bovine serumalbumine (Sigma). Cells were washed three times with 1 mL of PBS before incubation for 1 h30 min with the secondary antibody in PBS containing 0.1% Triton X-100 and 1% bovine serumalbumine. Cells were washed three times with PBS before exposure to DAPI 300 nM in PBS (Sigma) for 15 minutes at room temperature. After three washes in PBS, cells were rinsed with water and mounted in glass slides using Fluorsave reagent (Merck Millipore). • 4. Quantitative RT PCR
# To study the effects of ML347, DMH1, DMH2, K02288 and A8301 on PSC, the human embryonic stem cell line HS420 was used. Cells were plated at a low density on laminin 521 (10000/cm^2) in their maintenance medium (Stemflex) and exposed 24 h later to ML347, DMH1 or DMH2 or K02288 or A8301, during one week, at the concentration of 0.2 μM in a minimal medium suited for early neural induction. Once confluent (after 8 days), cells were passaged and plated in the same medium, without neural inductors, at the density of 50000/cm^2 polyornithine/Matrigel—coated tissue culture flasks for maturation (FIG. 2). […]
# [5] = system: human embryonic stem cell line HS420; test: Morphology of embryonic stem cells after one week of exposure in neural induction medium; format: cell-based; details: 0.2 μM; for morphological modifications of embryonic stem cells: vs control (DMSO)
# Experimental: as §1
# To study the effects of ML347, DMH1, DMH2, K02288 and A8301 on PSC, the human embryonic stem cell line HS420 was used. Cells were plated at a low density on laminin 521 (10000/cm^2) in their maintenance medium (Stemflex) and exposed 24 h later to ML347, DMH1 or DMH2 or K02288 or A8301, during one week, at the concentration of 0.2 μM in a minimal medium suited for early neural induction. Once confluent (after 8 days), cells were passaged and plated in the same medium, without neural inductors, at the density of 50000/cm^2 polyornithine/Matrigel—coated tissue culture flasks for maturation (FIG. 2).
# [6] = system: human embryonic stem cell line HS420; test: Q-RT-PCR of neuroectodermal markers (Pax-6, Sox-1, nestin) at day 8; format: cell-based
# Experimental: FIG. 5: Quantification of neuroectodermal markers following exposition of HS420 cells one week with ALKi or dualSMAD inhibition. Results are expressed as the percentage of control condition (DMSO) in three independent experiments. The bars in each bar graph represent, from left to right, data from DMH-1, DMH-2, K02288, A8301, and LDN+SB.
# as §2
# Q-RT-PCR experiments were performed to provide a quantitative description of neural-inducing effects of the 4 compounds (in three independent experiments).
Molecule,neural induction with generation of cells able to mature into neurons [1],Cmax [2] [nM],FoxG1 expression (forebrain specification) [3],morphological modifications of embryonic stem cells [5],other results
"Cc1cccc(-c2nn(C(=S)Nc3ccccc3)cc2-c2ccnc3ccccc23)n1 [A8301, 3-(6-Methylpyridin-2-yl)-N-phenyl-4-(quinolin-4-yl)-1H-pyrazole-1-carbothioamide]",favoured neural induction with the generation of cells able to be further maturated into neurons,5180 ± 1780,upregulation of FoxG1,showed morphological modifications,"expression of nestin, Pax-6 and Sox-1 by immunofluorescent staining [4]: homogeneously expressed nestin, Pax-6 and Sox-1; epithelial-like cells spreading between the colonies [5]: invaded as a monolayer the free tissue culture plate between the colonies"
"CC(C)Oc1ccc(-c2cnc3c(-c4ccnc5ccccc45)cnn3c2)cc1 [DMH1, 4-[6-(4-Propan-2-yloxyphenyl)pyrazolo[1,5-a]pyrimidin-3-yl]quinoline]",favoured neural induction with the generation of cells able to be further maturated into neurons,970 ± 460,reduced FoxG1 expression,showed morphological modifications,–
"c1ccc2c(-c3cnn4cc(-c5ccc(OCCN6CCOCC6)cc5)cnc34)ccnc2c1 [DMH2, 4-(2-(4-(3-(Quinolin-4-yl)pyrazolo[1,5-a]pyrimidin-6-yl)phenoxy)ethyl)morpholine]",favoured neural induction with the generation of cells able to be further maturated into neurons,580 ± 200,reduced FoxG1 expression,showed morphological modifications,–
"COc1cc(-c2cc(-c3cccc(O)c3)cnc2N)cc(OC)c1OC [K02288, 3-[6-Amino-5-(3,4,5-Trimethoxyphenyl)pyridin-3-Yl]phenol]",favoured neural induction with the generation of cells able to be further maturated into neurons,530 ± 250,–,showed morphological modifications,"expression of nestin, Pax-6 and Sox-1 by immunofluorescent staining [4]: homogeneously expressed nestin, Pax-6 and Sox-1; epithelial-like cells spreading between the colonies [5]: invaded as a monolayer the free tissue culture plate between the colonies"
c1ccc2c(-c3cnn4cc(-c5ccc(N6CCNCC6)cc5)cnc34)ccnc2c1 [LDN193189],–,–,–,–,"expression of Pax-6, Sox-1 and nestin mRNAs compared to control ([6]; 0.5 μM): increased the expression of Pax-6, Sox-1 and nestin mRNAs"
"COc1ccc(-c2cnc3c(-c4cccc5ncccc45)cnn3c2)cc1 [ML347, 5-[6-(4 Methoxyphenyl)pyrazolo[1,5-a]pyrimidin-3-yl]quinoline]",–,580 ± 200,–,–,–
"NC(=O)c1ccc(-c2nc(-c3ccc4c(c3)OCO4)c(-c3ccccn3)[nH]2)cc1 [SB431542, 4-(4-(Benzo[d][1,3]dioxol-5-yl)-5-(pyridin-2-yl)-1H-imidazol-2-yl)benzamide]",–,–,–,–,"Sox-1 mRNA ([6]; alone at 10 μM): moderate increase; expression of the three markers (Pax-6, Sox-1, nestin mRNAs) ([6]; alone at 10 μM): did not increase the three markers"
B1,–,–,–,–,effect on neuroectodermal marker mRNAs ([6]; alone at 100 ng/ml): moderate effect
